This note sets out measurements from US7326790B2, “Diphenylisoxazole compounds and hydro isomers thereof” (Rigel Pharmaceuticals, Inc., priority 2003, dated 2008).

In the test the test system is HCV replicon (5-2 Luc replicon-comprising cells). In words: HCV replicon assay (luciferase). Type of test: cell-based. The following applies: Hepatitis C virus; 5-2 Luc replicon cells, 24 hours with compound, luciferase activity. The source says: In one embodiment, the inhibitory activity of the compounds can be confirmed in a replicon assay that assesses the ability of a test compound to block or inhibit HCV replication in replicon cells. One example of a suitable replicon assay is the liver cell-line Huh 7-based replicon assay described in Lohmann et al., 1999, Science 285:110-113. A specific example of this replicon assay which utilizes luciferase translation is provided in the Examples Section. In one embodiment of this assay, the amount of test compound that yields a 50% reduction in translation as compared to a control cell (IC50) may be determined.
The inhibitory activity of certain exemplary compounds of the invention was confirmed using an HCV replicon assay. The HCV replicon can include such features as the HCV 5′ untranslated region including the HCV IRES, the HCV 3′ untranslated region, selected HCV genes encoding HCV polypeptides, selectable markers, and a reporter gene such as luciferase, GFP, etc. In the assay, actively dividing 5-2 Luc replicon-comprising cells (obtained from Ralf Bartenschlager; see Lohmann et al., 1999, Science 285:110-113) were seeded at a density of between about 5,000 and 7,500 cells/well onto 96 well plates (about 90 μl of cells per well) and incubated at 37° C. and 5% CO2 for 24 hours. Then, the test compound (in a volume of about 10 μl) was added to the wells at various concentrations and the cells were incubated for an additional 24 hours before luciferase assay. Briefly, the Bright-Glo reagent was diluted 1:1 with PBS and 100 μl of diluted reagent was added to each well. After 5 min of incubation at room temperature, luciferin emission was quantified with a luminometer. In this assay, the amount of test compound that yielded a 50% reduction in luciferase activity (IC50) was determined.
`O=C(Nc1ccc(-c2cc(-c3ccccc3Cl)no2)cc1)C(Cl)Cl` [Compound 55, 2,2-Dichloro-N-[4-[3-(2-chlorophenyl)-5-isoxazolyl]phenyl]Acetamide]: the 50% inhibitory concentration (IC50) was not above 10 µM.

Regarding `O=C(Nc1ccc(-c2cc(-c3c(F)cccc3F)no2)cc1)C(Cl)Cl` [Compound 59, 2,2-Dichloro-N-[4-[3-(2,6-difluorophenyl)-5-isoxazolyl]phenyl]Acetamide], the IC50 was not above 10 µM.

In the case of `O=C(Nc1cccc(-c2cc(-c3c(Cl)cccc3Cl)on2)c1)C(Cl)Cl` [Compound 39, 2,2-Dichloro-N-[3-[5-(2,6-dichlorophenyl)-3-isoxazolyl]phenyl]Acetamide], the half-inhibitory concentration (IC50) was less than 10 µM.
